Measurements reported in EP0096457B1, “Indium complexes of substituted 8-hydroxy-quinolines, pharmaceutical compositions containing them and their use as antibacterial agents” (NATIONAL RESEARCH DEVELOPMENT CORPORATION, priority 1982, dated 1983).
Converted amounts (≈) assume the structure as drawn.

How the values were obtained:
[1] = tested on: Escherichia coli (018; co1V^+); test: Minimal inhibitory concentration (MIC) in broth culture; type: cell-based; settings: trypticase soy broth with sodium bicarbonate, approx. 10^4 bacteria per ml, 18 hours at 37°C, 5% CO2 in air, lowest concentration with no visible growth, read-out: MIC Values E. coli
Protocol: (§1) Experiments were carried out to find the minimal inhibitory concentrations (MIC) for solutions of various indium complexes against Staphylococcus aureus (human isolate), Escherichia coli (018; co1V^+) and Klebsiella pneumoniae and to compare these with the MIC values for the corresponding metal-free compounds. The complexes were prepared in solution as described in Example 1 except that in the case of the complex of 7-iodo-8-hydroxyquinoline 5-sulphonic acid, 5 molar equivalents of metal-free compound were reacted with the indium chloride trihydrate and the solution was prepared in water. The solutions of the metal-free compounds were prepared in the same solvent as used for the equivalent complex.
(§2) The culture medium used consisted of a 9:1 mixture of trypticase soy broth and 6% w/v aqueous sodium bicarbonate solution. The medium was bulk inoculated with approximately 10^4 test bacteria per ml and 5.0 ml aliquots were then dispensed into sterile 20 ml bottles to which 0.05 ml of the test solution had been added. The test solutions were obtained from the original solution of the indium complex or metal-free compound by dilution to give a suitable range of concentrations in µM. Control samples, to which either no test solution was added or to which the solvent of the test solution only was added, were also prepared.
(§3) For each compound tested the samples at the various concentrations were studied to determine the lowest concentration of the compound at which no growth could be seen. The MIC values thus obtained are shown in Table 1 where it will be seen that the values are in each case lower for the indium complex as compared with the metal-free compound.

Klebsiella pneumoniae = test: as above; type: cell-based; settings: trypticase soy broth with sodium bicarbonate, approx. 10^4 bacteria per ml, 18 hours at 37°C, 5% CO2 in air, lowest concentration with no visible growth, read-out: MIC Values K. pneumoniae
Protocol: as §1, §2, §3

[2] = tested on: Staphylococcus aureus (human isolate); test: as above; type: cell-based; settings: trypticase soy broth with sodium bicarbonate, approx. 10^4 bacteria per ml, 18 hours at 37°C, 5% CO2 in air, lowest concentration with no visible growth, read-out: MIC Values S. aureus
Protocol: as §1, §2, §3

E. coli (108, co1V^+) = type: in vivo; settings: groups of 5 Parks mice infected i.p. with 8.0 x 10^6 E. coli, i.p. treatment 0.2 ml twice per day for 1 day (indium complex 4.6 mg/kg, metal-free compound 3.4 mg/kg per dose)
Protocol: (§4) The solutions for administration were prepared as follows: • (1) 2 equivalents of 5,7-dichloro-8-hydroxyquinoline were dissolved in a 15 mM solution of InCl3·3H2O in ethanol containing 1% v/v of glycerol. A 1.0 ml aliquot of this solution was dried in vacuo using a sterile universal container and the resultant residue was treated with 15 ml of sterile 0.15 M aqueous sodium chloride containing 1 % w/v of sodium bicarbonate and the solid dispersed by sonication. A 0.2 ml dose of the final preparation corresponds to a dose of 4.6 mg/kg in a 25 g mouse. • (2) 6.4 mg of 5,7-dichloro-8-hydroxyquinoline were moistened by the addition of 0.05 ml of dimethyl sulphoxide and to the moistened material was added 15 ml of sterile 0.15 M aqueous sodium chloride containing 1% w/v of sodium bicarbonate, the solid then being dispersed by sonication. A 0.2 ml dose of the final preparation corresponds to a dose of 3.4 mg/kg in a 25 g mouse.
Groups of 5 male or female Parks mice weighing from 23-25 g were infected by intraperitoneal injection of one of 8.0 x 10^6 E. coli, 3.5 x 10^5 K. pneumoniae and 7.0 x 10^8 S. aureus, the organisms in each case being suspended in 0.2 ml of 10% v/v trypticase soy broth in 0.15 M aqueous sodium chloride, three groups of mice being infected with each organism. […]

K. pneumoniae = test: In vivo test in intraperitoneally infected mice (deaths); settings: groups of 5 Parks mice infected i.p. with 3.5 x 10^5 K. pneumoniae, i.p. treatment 0.2 ml twice per day for 4 days (indium complex 4.6 mg/kg, metal-free compound 3.4 mg/kg per dose)
Protocol: as §4
(§5) Groups of 5 male or female Parks mice weighing from 23-25 g were infected by intraperitoneal injection of one of 8.0 x 10^6 E. coli, 3.5 x 10^5 K. pneumoniae and 7.0 x 10^8 S. aureus, the organisms in each case being suspended in 0.2 ml of 10% v/v trypticase soy broth in 0.15 M aqueous sodium chloride, three groups of mice being infected with each organism. For each organism, one of the three groups of infected mice was treated by intraperitoneal injection with 0.2 ml of a suspension of the indium complex whilst a second group was similarly treated with 0.2 ml of a supsension of the metal-free compound. The treatment was given twice per day for 1 day in the case of E. coli infection, twice per day for 4 days in the case of K. pneumoniae infection, and twice per day for 2 days in the case of the S. aureus infection. The third group of mice in each case received no treatment.

[3] = tested on: S. aureus (human isolate); test: as above; settings: groups of 5 Parks mice infected i.p. with 7.0 x 10^8 S. aureus, i.p. treatment 0.2 ml twice per day for 2 days (indium complex 4.6 mg/kg, metal-free compound 3.4 mg/kg per dose)
Protocol: as §4, §5

| MIC [1] [µM] | MIC (Klebsiella pneumoniae) [µM] | MIC [2] [µM] | Structure (SMILES) | Deaths at 7 days (E. coli (108, co1V^+)) | Deaths % (E. coli (108, co1V^+); at 7 days) [%] | Deaths at 7 days (K. pneumoniae) | Deaths % (K. pneumoniae; at 7 days) [%] | Deaths at 7 days [3] | Deaths % ([3]; at 7 days) [%] |
| --- | --- | --- | --- | --- | --- | --- | --- | --- | --- |
| 38.5 (≈ 6.91 µg/mL) | 38.5 (≈ 6.91 µg/mL) | 18.8 (≈ 3.38 µg/mL) | Oc1ccc(Cl)c2cccnc12 [5-Chloro-8-hydroxyquinoline] |  |  |  |  |  |  |
| > 500 | > 500 | > 500 | O=S(=O)(O)c1cc(I)c(O)c2ncccc12 [7-Iodo-8-hydroxyquinoline 5-sulphonic acid] |  |  |  |  |  |  |

| Structure (SMILES) | MIC [1] [µM] | MIC (Klebsiella pneumoniae) [µM] | MIC [2] [µM] | Deaths at 7 days (E. coli (108, co1V^+)) | Deaths % (E. coli (108, co1V^+); at 7 days) [%] | Deaths at 7 days (K. pneumoniae) | Deaths % (K. pneumoniae; at 7 days) [%] | Deaths at 7 days [3] | Deaths % ([3]; at 7 days) [%] |
| --- | --- | --- | --- | --- | --- | --- | --- | --- | --- |
| Oc1c(Cl)cc(Cl)c2cccnc12 [5,7-dichloro-8-hydroxyquinoline] | 100 (≈ 21.4 µg/mL) | 100 (≈ 21.4 µg/mL) | 6.3 (≈ 1.35 µg/mL) | 5 | 100 | 5 | 100 | 4 | 80 |
